This test concerns the target human OX2R (Homo sapiens (Human), UniProt O43614). Put plainly: IPOne (IP-1) assay in CHO cells expressing human OX2R. Type of test: cell-based. Conditions: for Emax (%) / Emax: percentage of mean max effect of a reference compound at 1 uM (100% activity by comparison to Orexin A), human OX2R; for IC50: CHO cells expressing human OX2R, IP-One detection, 2 hours incubation, EC50 = inflection point of four parameter logistic fit, read-out: hOX2R_IP_IC50; for Emax: CHO, read-out: Emax (%). Summed up:
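CHO cells stably expressing human OX2R were stimulated with compound (10-point ½-log dilutions) for 2 h at 37 °C. IP-1 accumulation was read by HTRF (IP-One, 665/620 nm). EC50 from a four-parameter fit; % effect relative to 1 μM reference agonist control.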

human OX2R, sequence (O43614 whole entry): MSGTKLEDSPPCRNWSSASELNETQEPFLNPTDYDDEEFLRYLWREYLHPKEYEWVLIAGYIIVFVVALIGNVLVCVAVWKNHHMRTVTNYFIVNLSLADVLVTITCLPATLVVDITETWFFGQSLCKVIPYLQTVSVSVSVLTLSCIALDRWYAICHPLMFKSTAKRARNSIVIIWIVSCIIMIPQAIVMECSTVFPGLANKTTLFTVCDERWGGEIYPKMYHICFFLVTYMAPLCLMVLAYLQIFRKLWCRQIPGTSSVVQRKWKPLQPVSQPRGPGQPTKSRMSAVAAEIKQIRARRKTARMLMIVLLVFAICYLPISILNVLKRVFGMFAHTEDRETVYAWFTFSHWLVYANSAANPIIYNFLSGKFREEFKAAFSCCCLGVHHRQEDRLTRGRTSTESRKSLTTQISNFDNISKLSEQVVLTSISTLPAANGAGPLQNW

As to `COC(=O)N1CC[C@H](NS(C)(=O)=O)[C@@H]1CO[C@@H]1CC[C@]2(c3ncccn3)C[C@@H]2C1` (single isomer, unassigned) [Example 25], the “Emax (%)” value was 94.7%. As to `COC(=O)N1[C@H](C)C[C@H](NS(C)(=O)=O)[C@@H]1COC1CCC2(c3ccccc3)CC2C1` (single isomer, unassigned) [Example 2], the IC50 came to 176 nM and the “Emax (%)” value worked out at 100.5%. Regarding `COC(=O)N1[C@H](C)C[C@H](NS(=O)(=O)C(C)C)[C@@H]1CO[C@H]1CC[C@@]2(c3ncc(F)cn3)C[C@H]2C1` [Example 38, methyl (2R,3S,5R)-2-((((1S,3S,6R)-6-(5-fluoropyrimidin-2-yl)bicyclo[4.1.0]heptan-3-yl)oxy)methyl)-5-methyl-3-((1-methylethyl)sulfonamido)pyrrolidine-1-carboxylate], the maximal response (Emax) (commonly the maximal effect, on the per cent scale that the assay sets) is 100%. Take `CC(F)COC(=O)N1[C@H](C)C[C@H](NS(C)(=O)=O)[C@@H]1CO[C@H]1CC[C@@]2(c3ncc(F)cn3)C[C@H]2C1` (stereo partly drawn) [Example 58, 2-fluoropropyl (2R,3S,5R)-2-((((1S,3S,6R)-6-(5-fluoropyrimidin-2-yl)bicyclo[4.1.0]heptan-3-yl)oxy)methyl)-5-methyl-3-(methylsulfonamido)pyrrolidine-1-carboxylate]: the maximal effect (Emax) came to 103%. `COC(=O)N1[C@H](C)C[C@H](NS(=O)(=O)N(C)C)[C@@H]1COC1CCC2(c3cnccn3)CC2C1` (single isomer, unassigned) [Example 14]: the “Emax (%)” value worked out at 93.5%. As to `CC(C)OC(=O)N1[C@H](C)C[C@H](NS(=O)(=O)N(C)C)[C@@H]1CO[C@H]1CC[C@@]2(c3ncccn3)C[C@H]2C1` [Example 171, isopropyl (2R,3S,5R)-3-((N,N-dimethylsulfamoyl)amino)-5-methyl-2-((((1S,3S,6R)-6-(pyrimidin-2-yl)bicyclo[4.1.0]heptan-3-yl)oxy)methyl)pyrrolidine-1-carboxylate], the Emax came to 101%. For `CC(C)OC(=O)N1[C@H](C)C[C@H](NS(=O)(=O)C(F)F)[C@@H]1CO[C@H]1CC[C@@]2(c3ncc(F)cn3)C[C@H]2C1` (single isomer, unassigned) [Example 90], the IC50 amounted to 1.2 nM and the Emax is 101%.

In the case of `COC(=O)N1[C@H](C)C[C@H](NS(=O)(=O)N(C)C)[C@@H]1COC1CCC2(c3cnccn3)CC2C1` (stereo partly drawn) [Example 13, methyl (2R,3S,5R)-3-((N,N-dimethylsulfamoyl)amino)-5-methyl-2-(((6-(pyrazin-2-yl)bicyclo[4.1.0]heptan-3-yl)oxy)methyl)pyrrolidine-1-carboxylate], the “Emax (%)” value is recorded as 82.0%. Take `CC(C)OC(=O)N1[C@H](C)C[C@H](NS(=O)(=O)N(C)C)[C@@H]1COC1CCC2(c3ncccn3)CC2C1` (stereo partly drawn) [Example 174, isopropyl (2R,3S,5R)-3-((N,N-dimethylsulfamoyl)amino)-5-methyl-2-(((6-(pyrimidin-2-yl)bicyclo[4.1.0]heptan-3-yl)oxy)methyl)pyrrolidine-1-carboxylate]: the Emax came to 95.4%.

For the molecule `COC(=O)N1[C@H](C)C[C@H](NS(C)(=O)=O)[C@@H]1COC1CCC2(c3ncccn3)CC2C1` (stereo partly drawn) [Example 184, methyl (2R,3S,5R)-5-methyl-3-(methylsulfonamido)-2-(((6-(pyrimidin-2-yl)bicyclo[4.1.0]heptan-3-yl)oxy)methyl)pyrrolidine-1-carboxylate], the Emax worked out at 102%. The same measure, in the same setting: next, `CC(C)OC(=O)N1[C@H](C)C[C@H](NS(=O)(=O)CF)[C@@H]1COC1CCC2(c3ncc(Cl)cn3)CC2C1` (stereo partly drawn) [Example 107, isopropyl (2R,3S,5R)-2-(((6-(5-chloropyrimidin-2-yl)bicyclo[4.1.0]heptan-3-yl)oxy)methyl)-3-((fluoromethyl)sulfonamido)-5-methylpyrrolidine-1-carboxylate]: 104%. For the molecule `COC(=O)N1[C@H](C)C[C@H](NS(C)(=O)=O)[C@@H]1CO[C@H]1CC[C@@]2(c3ncccn3)C[C@H]2C1` (single isomer, unassigned) [Example 19], the “Emax (%)” value was determined as 100.9%. The same measure, in the same setting: to `COC(=O)N1[C@H](C)C[C@H](NS(C)(=O)=O)[C@@H]1CO[C@@H]1CC[C@]2(c3ncccn3)C[C@@H]2C1` (single isomer, unassigned) [Example 20] belongs 99.7%; to `COC(=O)N1CC[C@H](NS(C)(=O)=O)[C@@H]1COC1CCC2(c3ncccn3)CC2C1` (stereo partly drawn) [Example 21, methyl (2R,3S)-3-(methylsulfonamido)-2-(((6-(pyrimidin-2-yl)bicyclo[4.1.0]heptan-3-yl)oxy)methyl)pyrrolidine-1-carboxylate], 94.6%. For `CC(C)OC(=O)N1[C@H](C)C[C@H](NS(C)(=O)=O)[C@@H]1CO[C@H]1CC[C@@]2(c3ncc(F)cn3)C[C@H]2C1` [Example 28, isopropyl (2R,3S,5R)-2-((((1S,3S,6R)-6-(5-fluoropyrimidin-2-yl)bicyclo[4.1.0]heptan-3-yl)oxy)methyl)-5-methyl-3-(methylsulfonamido)pyrrolidine-1-carboxylate], the Emax was 103%. For `COC(=O)N1[C@H](C)C[C@H](NS(=O)(=O)N(C)C)[C@@H]1CO[C@@H]1CC[C@]2(c3ncc(F)cn3)C[C@@H]2C1` (single isomer, unassigned) [Example 165], the IC50 amounted to 3.9 nM and the Emax turned out to be 101%.

With `COC(=O)N1[C@H](C)C[C@H](NS(=O)(=O)CCl)[C@@H]1CO[C@H]1CC[C@@]2(c3ncc(F)cn3)C[C@H]2C1` [Example 37, methyl (2R,3S,5R)-3-((chloromethyl)sulfonamido)-2-((((1S,3S,6R)-6-(5-fluoropyrimidin-2-yl)bicyclo[4.1.0]heptan-3-yl)oxy)methyl)-5-methylpyrrolidine-1-carboxylate], the Emax was determined as 103%. On to `CC(C)OC(=O)N1[C@H](C)C[C@H](NS(=O)(=O)C(F)F)[C@@H]1CO[C@H]1CC[C@@]2(c3ncc(Cl)cn3)C[C@H]2C1` (single isomer, unassigned) [Example 81], for which the IC50 stood at 4.5 nM and the Emax worked out at 100%. With `COC(=O)N1[C@H](C(F)F)C[C@H](NS(=O)(=O)CF)[C@@H]1CO[C@H]1CC[C@@]2(c3ncc(F)cn3)C[C@H]2C1` (single isomer, unassigned) [Example 113], the IC50 was found to be 0.6 nM and the maximal effect (Emax) turned out to be 103%. Take `COC(=O)N1[C@H](C)C[C@H](NS(=O)(=O)CF)[C@@H]1COC1CCC2(c3ncc(Cl)cn3)CC2C1` (stereo partly drawn) [Example 94, methyl (2R,3S,5R)-2-(((6-(5-chloropyrimidin-2-yl)bicyclo[4.1.0]heptan-3-yl)oxy)methyl)-3-((fluoromethyl)sulfonamido)-5-methylpyrrolidine-1-carboxylate]: the Emax amounted to 102%. With `COC(=O)N1[C@H](C(F)(F)F)C[C@H](NS(C)(=O)=O)[C@@H]1CO[C@H]1CC[C@@]2(c3ncc(F)cn3)C[C@H]2C1` (single isomer, unassigned) [Example 133], the IC50 is 2.6 nM and the Emax worked out at 101%. In the same order, the values of `CC(C)OC(=O)N1[C@H](C)C[C@H](NS(=O)(=O)CF)[C@@H]1CO[C@@H]1CC[C@]2(c3ncc(Br)cn3)C[C@@H]2C1` (single isomer, unassigned) [Example 104] are 34.5 nM and 102%. Take `COC(=O)N1[C@H](C)C[C@H](NS(C)(=O)=O)[C@@H]1COC1CCC2(c3ncccn3)CC2C1` (single isomer, unassigned) [Example 17]: the IC50 was 2260 nM and the “Emax (%)” value was 89.7%.
